Measurements from US20040023855A1, “Biologic modulations with nanoparticles” (priority 2002, published 2004).
Marks after values point to notes of the source that are not given here.

Experiments:
Galectin-3 = Galectin-3 (Homo sapiens, UniProt P17931); details: relative affinity, lactose on galectin-3 given as 1; cited from earlier work
[1] = tested on: Alva-41 prostate carcinoma cells; experiment: In vitro growth inhibition (cytotoxicity) by cisplatin nanoparticles; type: cell-based, human; details: at doses greater than 60 µg/ml
Protocol: FIG. 3 is a graph showing the in vitro cytotoxicity of nanoparticles comprising cisplatin and various cell recognition components for Alva-41, human tumor cells derived from a prostate carcinoma metastasis; and
Cisplatin was nanoencapsulated into the various candidate tumor-binding agents as described previously and nanoparticles were compared for growth inhibition in a metastatic variant of Alva-41 prostate carcinoma cells and Ca-9-22. Formulas were tested in duplicate in two separate experiments. Results are illustrated for the prostate cell line in FIG. 3. Referring to FIG. 3, PEX-MMP-l/Cisplatin refers to s50 nanoparticles comprising cisplatin and the Recombinant Pex binding domain of membrane-associated Matrix Metalloproteinase-1 (see Bello et. al, Cancer Research (2001) 61: 8730-36); Tenascin/Cisplatin refers to s50 nanoparticles having tenascin and cisplatin, FN-PHSCN/Cisplatin refers to nanoparticles comprising the FN-PHSCN fragment and cisplatin, galectin-3/cisplatin refers to s50 nanoparticles comprising recombinant N-terminally truncated galectin-3 and cisplatin, hyaluronan/cisplatin refers to s50 nanoparticles comprising hyaluronan and cisplatin, and naked cisplatin refers to the addition of free cisplatin to the cell medium. In these experiments cells were plated at 5,000 per well and followed for 72 hours. […]

Galectin-3C = biological target: T1, Galectin-3C (Homo sapiens, UniProt P17931); details: relative affinity, same scale as galectin-3 column; cited from earlier work
T1 construct: The digestion produced a 143 amino acid residue polypeptide beginning with Gly-108
T1 sequence (P17931 108-250): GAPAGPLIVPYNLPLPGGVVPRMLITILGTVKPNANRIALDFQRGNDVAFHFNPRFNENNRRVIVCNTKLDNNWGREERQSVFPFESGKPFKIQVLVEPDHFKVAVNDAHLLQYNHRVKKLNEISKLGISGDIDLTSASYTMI

[2] = Maximum tolerated dose in nude mice; type: in vivo; details: without overt adverse effects
[3] = design: species or system nude mice; details: mouse, in vivo, im
[4] = tested on: orthotopically implanted tumors derived from breast cancer cell line MDA-MB435; experiment: Orthotopic mouse model of human breast cancer; type: in vivo, nude mice
Protocol: The safety, plasma half-life, and efficacy of galectin-3C in an orthotopic mouse model of human breast cancer was evaluated. A recent feasibility study of the anticancer activity of recombinant human galectin-3 N-terminally truncated by exhaustive digestion with Clostridium histiolyticum collagenase type VII (Sigma; St. Louis, Mo.), (36, 75) in an orthotopic mouse model of metastatic breast cancer (22) produced promising results. The digestion produced a 143 amino acid residue polypeptide beginning with Gly-108. In treated animals the number of primary tumors that metastasized was less than controls by 3-fold (P=0.031), and the mean primary tumor volume of the treated animals was 61% less than the controls (P=0.009). The results provide compelling evidence that treatment with an N-terminally truncated form of galectin-3 could useful in treatment and prevention of cancer, especially metastatic cancer.
One example of the use in vivo of N-terminally truncated galectin-3 is as a potential therapeutic agent for breast cancer. It was determined that therapy with an N-terminally truncated form of galectin-3 is efficacious for inhibition of metastases. To this end, recombinant galectin-3 was produced and the N-terminally truncated galectin-3 was derived by collagenase enzyme digestion and affinity chromatography. Injected N-terminally truncated galectin-3 was detected by metabolic labeling with ^35S methionine prior to collagenase cleavage. […] Mice bearing orthotopically implanted tumors derived from breast cancer cell line MDA-MB435 were treated intramuscularly twice daily for 90 days with N-terminally truncated galectin-3 or a vehicle control. […] In a recent study at the end of the treatment period, the number of treated animals with primary tumors that metastasized was less than controls by 3-fold (P=0.031), and the mean primary tumor volume of the treated animals was 61% less than the controls (P=0.009). The results provide compelling evidence that treatment with an N-terminally truncated form of galectin-3 could useful in treatment and prevention of cancer, especially metastatic cancer. The truncated form of galectin-3 was efficacious in reducing metastases, and the tumor volumes and weights of primary tumors.

[5] = tested on: dog-kidney epithelial cell line MDCK II (Madin-Darby Canine Kidney); details: lactose-inhibitable, cited from earlier work
[6] = intramuscularly twice daily for 90 days

Galectin-3, sequence (P17931 whole entry): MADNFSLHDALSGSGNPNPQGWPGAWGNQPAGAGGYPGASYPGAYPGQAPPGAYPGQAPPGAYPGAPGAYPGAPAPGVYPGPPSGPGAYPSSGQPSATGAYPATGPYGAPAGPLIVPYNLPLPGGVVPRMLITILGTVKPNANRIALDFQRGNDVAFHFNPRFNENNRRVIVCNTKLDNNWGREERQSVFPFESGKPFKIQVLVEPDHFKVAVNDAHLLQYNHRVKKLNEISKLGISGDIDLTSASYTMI

CO[C@H]1O[C@H](CO)[C@H](O)[C@H](O[C@H]2O[C@H](CO)[C@H](O)[C@H](O)[C@H]2O)[C@H]1O [Galα1→3GalαOme]
Relative Carbohydrate Affinities, Galectin-3 (Galectin-3): 0.2

N.N.[Cl][Pt][Cl] [free cisplatin, cisplatin]
activity compared to the other nanocapsule formulations [1]: greatest activity

(LacNAc)2
Relative Carbohydrate Affinities, Galectin-3 (Galectin-3): 20*
Relative Carbohydrate Affinities, Galectin-3C (Galectin-3C): 54

(LacNAc)5
Relative Carbohydrate Affinities, Galectin-3 (Galectin-3): 137
Relative Carbohydrate Affinities, Galectin-3C (Galectin-3C): 60.5

Galβ1→3GlcNAc
Relative Carbohydrate Affinities, Galectin-3 (Galectin-3): 6.3

Galβ1→4(Fucα1→3)GlcNAc [Galβ1→4(Fucα1→3)GlcNAc (LeX)]
Relative Carbohydrate Affinities, Galectin-3 (Galectin-3): <0.02

Galβ1→4GlcNAc [Galβ1→4GlcNAc (LacNAc)]
Relative Carbohydrate Affinities, Galectin-3 (Galectin-3): 11.3

N-terminally truncated galectin-3: recombinant human galectin-3 truncated by collagenase digestion; 143 amino acid polypeptide beginning with Gly-108 (SEQ ID NO. 1)
maximum tolerated dose [2]: greater than 125 mg/kg
pharmacokinetic elimination half-life [3]: 4.56 h
mean primary tumor volume less than the controls ([4]; end of treatment period, P=0.009): 61%
number of treated animals with primary tumors that metastasized, less than controls ([4]; end of treatment period, P=0.031): 3 fold
mean tumor volumes compared with control mice [4, 6]: statistically significantly less
mean tumor weights compared with control mice [4, 6]: statistically significantly less
mice with lymph node metastases compared with control group [4, 6]: fewer numbers of mice exhibited lymph node metastases

galectin-3: intact wild-type galectin-3, chimera type β-galactoside binding lectin (SEQ ID NO. 3)
apically bound radiolabeled galectin-3 endocytosed ([5]; Transwell chambers): more than 90%
galectin-3 transcytosed ([5]; after 120 min): 20%
